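Assay format: 96-well plates, 48-hour exposure. At the GI50, growth is halved. TGI is the concentration that stops growth completely.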
Columns and labels:
Experiment in all cases: DTP human tumour cell line panel, 48 h
[1] = tested on: RXF 393 renal
[2] = tested on: HOP-62 NSCLC
[3] = tested on: EKVX NSCLC
[4] = tested on: OVCAR-8 ovarian
[5] = tested on: SK-OV-3 ovarian
[6] = tested on: MDA-MB-435
[7] = tested on: SF-268 CNS
[8] = tested on: HCC-2998 colon
[9] = tested on: T-47D breast
[10] = tested on: A549 NSCLC
[11] = tested on: UO-31 renal
[12] = tested on: SK-MEL-2 melanoma
[13] = tested on: NCI/ADR-RES ovarian
[14] = tested on: LOX IMVI melanoma
[15] = tested on: ACHN renal
[16] = tested on: OVCAR-4 ovarian
[17] = tested on: NCI-H460 lung
[18] = tested on: HL-60(TB) leukemia
[19] = tested on: K-562 leukemia
[20] = tested on: SK-MEL-5 melanoma
[21] = tested on: UACC-257 melanoma
[22] = tested on: SNB-19 CNS
[23] = tested on: A498 renal
[24] = tested on: SF-539 CNS
[25] = tested on: CAKI-1 renal
[26] = tested on: MCF7 breast
[27] = tested on: SW-620 colon
[28] = tested on: CCRF-CEM leukemia
[29] = tested on: HS 578T breast
[30] = tested on: M14 melanoma
[31] = tested on: HT29 colon
[32] = tested on: IGROV1 ovarian
[33] = tested on: DU-145 prostate
[34] = tested on: HCT-116 colon
[35] = tested on: HOP-92 NSCLC
[36] = tested on: TK-10 renal
[37] = tested on: SR leukemia
[38] = tested on: NCI-H226 lung
[39] = tested on: RPMI-8226 leukemia
[40] = tested on: U251 CNS
[41] = tested on: MDA-MB-231 breast
[42] = tested on: COLO 205 colon
[43] = tested on: HCT-15 colon
[44] = tested on: NCI-H522 lung
[45] = tested on: BT-549 breast
[46] = tested on: MOLT-4 leukemia
[47] = tested on: SNB-75 CNS
[48] = tested on: SF-295 CNS
[49] = tested on: MALME-3M melanoma
[50] = tested on: KM12 colon
[51] = tested on: NCI-H23 lung
[52] = tested on: SN12C renal
[53] = tested on: OVCAR-3 ovarian
[54] = tested on: SK-MEL-28 melanoma
[55] = tested on: OVCAR-5 ovarian

COc1ccccc1C1C(C#N)=C(N)Oc2cc(O)ccc21 (stereo not given) showed a GI50 [1] of 23.2 µM, a TGI [1] of 75.6 µM and a GI50 [2] of 15.8 µM. It also gave a TGI [2] of 60.2 µM, a GI50 [3] of 34.6 µM and a TGI [3] greater than 100 µM. The GI50 [4] was 35.2 µM, the TGI [4] was greater than 100 µM and the GI50 [5] was 16.8 µM. It also gave a TGI [5] of 44.6 µM, a GI50 [6] of 4.1 µM and a TGI [6] of 9.52 µM. For the same molecule, the GI50 [7] was 19.4 µM, the TGI [7] was 91 µM and the GI50 [8] was 11.7 µM. It also gave a TGI [8] of 35.5 µM, a GI50 [9] of 13.9 µM and a TGI [9] of 76.3 µM. It also gave a GI50 [10] of 26.8 µM, a TGI [10] greater than 100 µM and a GI50 [11] of 29.3 µM. The TGI [11] was greater than 100 µM, the GI50 [12] was 23 µM and the TGI [12] was greater than 100 µM. For the same molecule, the GI50 [13] was 8.56 µM, the TGI [13] was 68.2 µM and the GI50 [14] was 30.8 µM. The TGI [14] was greater than 100 µM, the GI50 [15] was 22.3 µM and the TGI [15] was 84 µM. It also gave a GI50 [16] of 25.3 µM, a TGI [16] of 85.9 µM and a GI50 [17] of 20 µM. It also gave a TGI [17] of 58.8 µM, a GI50 [18] of 18.8 µM and a TGI [18] greater than 100 µM. The GI50 [19] was 4.68 µM, the TGI [19] was greater than 100 µM and the GI50 [20] was 22.4 µM. For the same molecule, the TGI [20] was 71.9 µM, the GI50 [21] was 27.7 µM and the TGI [21] was 94.6 µM. For the same molecule, the GI50 [22] was 21.3 µM, the TGI [22] was 99.8 µM and the GI50 [23] was 36.8 µM. The TGI [23] was greater than 100 µM, the GI50 [24] was 24.7 µM and the TGI [24] was 66 µM. For the same molecule, the GI50 [25] was 17.7 µM, the TGI [25] was 68.9 µM and the GI50 [26] was 17.7 µM. For the same molecule, the TGI [26] was 49.7 µM, the GI50 [27] was 29.1 µM and the TGI [27] was greater than 100 µM. For the same molecule, the GI50 [28] was 12 µM, the TGI [28] was 29.1 µM and the GI50 [29] was 34.1 µM. It also gave a TGI [29] greater than 100 µM, a GI50 [30] of 13.4 µM and a TGI [30] of 35 µM. The GI50 [31] was 16 µM, the TGI [31] was 45.1 µM and the GI50 [32] was 1.98 µM. The TGI [32] was 25.4 µM, the GI50 [33] was 26 µM and the TGI [33] was 94.1 µM. For the same molecule, the GI50 [34] was 12.5 µM, the TGI [34] was 26.4 µM and the GI50 [35] was 4.77 µM. For the same molecule, the TGI [35] was 33.7 µM, the GI50 [36] was 27.6 µM and the TGI [36] was greater than 100 µM. It also gave a GI50 [37] of 3.48 µM, a TGI [37] of 21.1 µM and a GI50 [38] of 13.7 µM. The TGI [38] was 35 µM, the GI50 [39] was 5.99 µM and the TGI [39] was 19.8 µM. It also gave a GI50 [40] of 19.8 µM, a TGI [40] of 62.6 µM and a GI50 [41] of 4.34 µM. It also gave a TGI [41] of 24.8 µM, a GI50 [42] of 15.8 µM and a TGI [42] of 36.6 µM. The GI50 [43] was 23.9 µM, the TGI [43] was greater than 100 µM and the GI50 [44] was 3.15 µM. The TGI [44] was 17.1 µM, the GI50 [45] was 24 µM and the TGI [45] was 80.4 µM. The GI50 [46] was 13.1 µM, the TGI [46] was 45.4 µM and the GI50 [47] was 23 µM. It also gave a TGI [47] of 56.4 µM, a GI50 [48] of 16 µM and a TGI [48] of 80.6 µM. For the same molecule, the GI50 [49] was 21.6 µM, the TGI [49] was 88.6 µM and the GI50 [50] was 9.57 µM. The TGI [50] was greater than 100 µM, the GI50 [51] was 17.6 µM and the TGI [51] was 49.4 µM. For the same molecule, the GI50 [52] was 11.6 µM, the TGI [52] was 31.1 µM and the GI50 [53] was 13 µM. It also gave a TGI [53] of 51.4 µM, a GI50 [54] of 25 µM and a TGI [54] of 86.1 µM. For the same molecule, the GI50 [55] was 29.2 µM and the TGI [55] was greater than 100 µM.

Source: PubChem BioAssay (NCI)
